# From patent US20250353891A1 (MEDIMMUNE LIMITED, priority 2022, published 2025)
# Starred links: 1 amine or outer side, 2 acyl side, 3 side chain; linkers in the order of their positions; H or OH if unused. Non-standard residues stand in square brackets, D forms with d. Residues, ends and D or L forms follow the SMILES beside them. Groups on a side chain read outwards from the residue. *: point of attachment. γGlu = O=C(O)[C@H](CCC(=O)[*:2])N[*:1]; Stearoyl = CCCCCCCCCCCCCCCCCC(=O)*; Palmitoyl = CCCCCCCCCCCCCCCC(=O)*; αMeF = C[C@](N)(Cc1ccccc1)C(=O)O; Myristoyl = CCCCCCCCCCCCCC(=O)*; PEG2 = NCCOCCOCCC(=O)O; Aib = CC(C)(N)C(=O)O
# What was measured:
# [1] = target: human glucagon receptor (hGCGR) (Homo sapiens, UniProt P47871); experiment: cAMP production (HTRF) in CHO cells expressing hGCGR; format: cell-based; set-up: expressed in transfected cells; settings: Table 6, peptides modified at position 17; cAMP in CHO hGCGR cells; geometric mean; read-out: hGluc-R EC50
# Method in brief: (§1)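 Cells were resuspended in assay buffer at batch-optimized density, typically 1×10^5 cells/mL for hGLP-1R and 2×10^5 cells/mL for hGCGR. After 30 min incubation at room temperature with compound, cAMP was measured by two-step HTRF. EC50 values came from 4-parameter logistic fits of % Delta F.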
# [2] = target: human GLP-1 receptor (hGLP-1R) (Homo sapiens, UniProt P43220); experiment: cAMP production (HTRF) in CHO cells expressing hGLP-1R; format: cell-based; set-up: expressed in transfected cells; settings: for EC50: Table 6, peptides modified at position 17, cAMP in CHO hGLP-1R cells, geometric mean, read-out: hGLP-1R EC50; for % Relative Potency Ratio: Table 6, % GLP-1R activity relative to GLP-1 / % GlucR activity relative to glucagon
# Method in brief: as §1
# Chain of human glucagon receptor (hGCGR) (P47871 26-477): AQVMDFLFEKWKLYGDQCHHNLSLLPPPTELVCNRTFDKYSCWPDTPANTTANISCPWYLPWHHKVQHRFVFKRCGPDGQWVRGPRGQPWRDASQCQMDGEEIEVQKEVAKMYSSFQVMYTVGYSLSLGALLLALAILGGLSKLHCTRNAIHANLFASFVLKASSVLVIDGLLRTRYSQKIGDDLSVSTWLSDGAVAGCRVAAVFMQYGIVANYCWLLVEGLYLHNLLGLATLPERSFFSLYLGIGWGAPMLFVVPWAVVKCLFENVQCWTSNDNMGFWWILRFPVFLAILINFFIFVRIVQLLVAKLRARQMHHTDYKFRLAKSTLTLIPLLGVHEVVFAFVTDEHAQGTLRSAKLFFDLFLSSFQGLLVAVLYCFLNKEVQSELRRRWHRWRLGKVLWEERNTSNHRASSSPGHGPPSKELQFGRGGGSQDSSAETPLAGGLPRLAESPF
# Chain of human GLP-1 receptor (hGLP-1R) (P43220 24-463): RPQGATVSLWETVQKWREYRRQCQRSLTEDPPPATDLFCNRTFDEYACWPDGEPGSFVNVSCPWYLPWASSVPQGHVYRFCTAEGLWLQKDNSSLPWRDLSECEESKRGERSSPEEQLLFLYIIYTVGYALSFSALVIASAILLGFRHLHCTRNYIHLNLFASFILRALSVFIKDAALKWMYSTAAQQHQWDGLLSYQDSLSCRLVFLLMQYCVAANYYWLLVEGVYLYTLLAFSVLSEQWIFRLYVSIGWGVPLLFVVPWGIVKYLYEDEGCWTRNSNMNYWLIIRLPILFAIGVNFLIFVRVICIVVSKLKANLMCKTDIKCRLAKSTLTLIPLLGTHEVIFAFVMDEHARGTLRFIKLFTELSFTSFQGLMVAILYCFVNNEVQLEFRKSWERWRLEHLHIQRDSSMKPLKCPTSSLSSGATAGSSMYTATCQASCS
EC50 [1] [pM],EC50 [2] [pM],% Relative Potency Ratio [2],SMILES
10.3,24.3,0.8,CCCCCCCCCCCCCCCC(=O)N[C@@H](CCC(=O)N[C@@H](CCC(=O)NCCOCCOCCC(=O)NCCOCCOCCC(=O)NCCCC[C@H](NC(=O)[C@H](CO)NC(=O)[C@H](CC(=O)O)NC(=O)[C@H](CC(C)C)NC(=O)[C@@H](NC(=O)[C@H](CCCCN)NC(=O)[C@H](CO)NC(=O)[C@@H](NC(=O)[C@H](CC(=O)O)NC(=O)[C@H](CO)NC(=O)[C@@H](NC(=O)[C@](C)(Cc1ccccc1)NC(=O)[C@H](CO)NC(=O)CNC(=O)[C@H](CCC(N)=O)NC(=O)[C@H](CO)NC(=O)[C@@H](N)Cc1c[nH]cn1)[C@@H](C)O)C(C)C)[C@@H](C)CC)C(=O)N[C@@H](C)C(=O)N[C@@H](C)C(=O)N[C@@H](CCC(N)=O)C(=O)N[C@@H](CC(=O)O)C(=O)N[C@@](C)(Cc1ccccc1)C(=O)N[C@H](C(=O)N[C@@H](CCC(=O)O)C(=O)N[C@@H](Cc1c[nH]c2ccccc12)C(=O)N[C@H](C(=O)N[C@H](C(=O)N[C@@H](CC(N)=O)C(=O)N[C@H](C(N)=O)[C@@H](C)O)[C@@H](C)CC)[C@@H](C)CC)C(C)C)C(=O)O)C(=O)O [Peptide 116] (H-HSQGS[αMeF]TSDVSKILDSK([PEG2-PEG2-γGlu-γGlu-Palmitoyl])AAQD[αMeF]VEWIINT-NH2; N-terminus assumed)
1.2,1.07,2.2,CCCCCCCCCCCCCCCC(=O)N[C@@H](CCC(=O)N[C@@H](CCC(=O)NCCOCCOCCC(=O)NCCOCCOCCC(=O)NCCCC[C@H](NC(=O)[C@H](CO)NC(=O)[C@H](CC(=O)O)NC(=O)[C@H](CC(C)C)NC(=O)[C@@H](NC(=O)[C@H](CCCCN)NC(=O)[C@H](CO)NC(=O)[C@@H](NC(=O)[C@H](CC(=O)O)NC(=O)[C@H](CO)NC(=O)[C@@H](NC(=O)[C@](C)(Cc1ccccc1)NC(=O)[C@H](CO)NC(=O)CNC(=O)[C@H](CCC(N)=O)NC(=O)[C@H](CO)NC(=O)[C@@H](N)Cc1c[nH]cn1)[C@@H](C)O)C(C)C)[C@@H](C)CC)C(=O)N[C@@H](C)C(=O)N[C@@H](C)C(=O)N[C@@H](CCC(N)=O)C(=O)N[C@@H](CC(=O)O)C(=O)N[C@@](C)(Cc1ccccc1)C(=O)N[C@H](C(=O)N[C@@H](CCC(N)=O)C(=O)NC(C)(C)C(=O)N[C@H](C(=O)N[C@H](C(=O)N[C@@H](CC(N)=O)C(=O)N[C@H](C(N)=O)[C@@H](C)O)[C@@H](C)CC)[C@@H](C)CC)C(C)C)C(=O)O)C(=O)O [Peptide 118] (H-HSQGS[αMeF]TSDVSKILDSK([PEG2-PEG2-γGlu-γGlu-Palmitoyl])AAQD[αMeF]VQ[Aib]IINT-NH2)
1.7,1.39,2.4,CCCCCCCCCCCCCC(=O)N[C@@H](CCC(=O)N[C@@H](CCC(=O)NCCOCCOCCC(=O)NCCOCCOCCC(=O)NCCCC[C@H](NC(=O)[C@H](CO)NC(=O)[C@H](CC(=O)O)NC(=O)[C@H](CC(C)C)NC(=O)[C@@H](NC(=O)[C@H](CCCCN)NC(=O)[C@H](CO)NC(=O)[C@@H](NC(=O)[C@H](CC(=O)O)NC(=O)[C@H](CO)NC(=O)[C@@H](NC(=O)[C@](C)(Cc1ccccc1)NC(=O)[C@H](CO)NC(=O)CNC(=O)[C@H](CCC(N)=O)NC(=O)[C@H](CO)NC(=O)[C@@H](N)Cc1c[nH]cn1)[C@@H](C)O)C(C)C)[C@@H](C)CC)C(=O)N[C@@H](C)C(=O)N[C@@H](C)C(=O)N[C@@H](CCC(N)=O)C(=O)N[C@@H](CC(=O)O)C(=O)N[C@@](C)(Cc1ccccc1)C(=O)N[C@H](C(=O)N[C@@H](CCC(N)=O)C(=O)NC(C)(C)C(=O)N[C@H](C(=O)N[C@H](C(=O)N[C@@H](CC(N)=O)C(=O)N[C@H](C(N)=O)[C@@H](C)O)[C@@H](C)CC)[C@@H](C)CC)C(C)C)C(=O)O)C(=O)O [Peptide 119] (H-HSQGS[αMeF]TSDVSKILDSK([PEG2-PEG2-γGlu-γGlu-Myristoyl])AAQD[αMeF]VQ[Aib]IINT-NH2; N-terminus assumed)
2.62,1.81,2.9,CCCCCCCCCCCCCCCCCC(=O)N[C@@H](CCC(=O)NCCOCCOCCC(=O)NCCOCCOCCC(=O)NCCCC[C@H](NC(=O)[C@H](CO)NC(=O)[C@H](CC(=O)O)NC(=O)[C@H](CC(C)C)NC(=O)[C@@H](NC(=O)[C@H](CCCCN)NC(=O)[C@H](CO)NC(=O)[C@@H](NC(=O)[C@H](CC(=O)O)NC(=O)[C@H](CO)NC(=O)[C@@H](NC(=O)[C@](C)(Cc1ccccc1)NC(=O)[C@H](CO)NC(=O)CNC(=O)[C@H](CCC(N)=O)NC(=O)[C@H](CO)NC(=O)[C@@H](N)Cc1c[nH]cn1)[C@@H](C)O)C(C)C)[C@@H](C)CC)C(=O)N[C@@H](C)C(=O)N[C@@H](C)C(=O)N[C@@H](CCC(N)=O)C(=O)N[C@@H](CC(=O)O)C(=O)N[C@@](C)(Cc1ccccc1)C(=O)N[C@H](C(=O)N[C@@H](CCC(N)=O)C(=O)NC(C)(C)C(=O)N[C@H](C(=O)N[C@H](C(=O)N[C@@H](CC(N)=O)C(=O)N[C@H](C(N)=O)[C@@H](C)O)[C@@H](C)CC)[C@@H](C)CC)C(C)C)C(=O)O [Peptide 120] (H-HSQGS[αMeF]TSDVSKILDSK([PEG2-PEG2-γGlu-Stearoyl])AAQD[αMeF]VQ[Aib]IINT-NH2; N-terminus assumed)
1.2,1.5,1.6,CCCCCCCCCCCCCCCC(=O)N[C@@H](CCC(=O)NCCOCCOCCC(=O)NCCOCCOCCC(=O)NCCCC[C@H](NC(=O)[C@H](CO)NC(=O)[C@H](CC(=O)O)NC(=O)[C@H](CC(C)C)NC(=O)[C@@H](NC(=O)[C@H](CCCCN)NC(=O)[C@H](CO)NC(=O)[C@@H](NC(=O)[C@H](CC(=O)O)NC(=O)[C@H](CO)NC(=O)[C@@H](NC(=O)[C@](C)(Cc1ccccc1)NC(=O)[C@H](CO)NC(=O)CNC(=O)[C@H](CCC(N)=O)NC(=O)[C@H](CO)NC(=O)[C@@H](N)Cc1c[nH]cn1)[C@@H](C)O)C(C)C)[C@@H](C)CC)C(=O)N[C@@H](C)C(=O)N[C@@H](C)C(=O)N[C@@H](CCC(N)=O)C(=O)N[C@@H](CC(=O)O)C(=O)N[C@@](C)(Cc1ccccc1)C(=O)N[C@H](C(=O)N[C@@H](CCC(N)=O)C(=O)NC(C)(C)C(=O)N[C@H](C(=O)N[C@H](C(=O)N[C@@H](CC(N)=O)C(=O)N[C@H](C(N)=O)[C@@H](C)O)[C@@H](C)CC)[C@@H](C)CC)C(C)C)C(=O)O [Peptide 121] (H-HSQGS[αMeF]TSDVSKILDSK([PEG2-PEG2-γGlu-Palmitoyl])AAQD[αMeF]VQ[Aib]IINT-NH2; N-terminus assumed)
12.9,,51.4,CCCCCCCCCCCCCCCC(=O)N[C@@H](CCC(=O)N[C@@H](CCC(=O)NCCOCCOCCC(=O)NCCOCCOCCC(=O)NCCCC[C@H](NC(=O)[C@H](CO)NC(=O)[C@H](CC(=O)O)NC(=O)[C@H](CC(C)C)NC(=O)[C@@H](NC(=O)[C@H](CCCCN)NC(=O)[C@H](CO)NC(=O)[C@@H](NC(=O)[C@H](CC(=O)O)NC(=O)[C@H](CO)NC(=O)[C@@H](NC(=O)[C@](C)(Cc1ccccc1)NC(=O)[C@H](CO)NC(=O)CNC(=O)[C@H](CCC(N)=O)NC(=O)C(C)(C)NC(=O)[C@@H](N)Cc1c[nH]cn1)[C@@H](C)O)C(C)C)[C@@H](C)CC)C(=O)N[C@@H](C)C(=O)N[C@@H](C)C(=O)N[C@@H](CCC(N)=O)C(=O)N[C@@H](CC(=O)O)C(=O)N[C@@](C)(Cc1ccccc1)C(=O)N[C@H](C(=O)N[C@@H](CCC(N)=O)C(=O)N[C@H](C(=O)N[C@H](C(=O)N[C@@H](C)C(=O)N[C@@H](CC(N)=O)C(N)=O)[C@@H](C)CC)[C@@H](C)CC)C(C)C)C(=O)O)C(=O)O [Peptide 123] (H-H[Aib]QGS[αMeF]TSDVSKILDSK([PEG2-PEG2-γGlu-γGlu-Palmitoyl])AAQD[αMeF]VQIIAN-NH2; N-terminus assumed)
9.79,1.27,15.2,CCCCCCCCCCCCCCCCCC(=O)N[C@@H](CCC(=O)N[C@@H](CCC(=O)NCCOCCOCCC(=O)NCCOCCOCCC(=O)NCCCC[C@H](NC(=O)[C@H](CO)NC(=O)[C@H](CC(=O)O)NC(=O)[C@H](CC(C)C)NC(=O)[C@@H](NC(=O)[C@H](CCCCN)NC(=O)[C@H](CO)NC(=O)[C@@H](NC(=O)[C@H](CC(=O)O)NC(=O)[C@H](CO)NC(=O)[C@@H](NC(=O)[C@](C)(Cc1ccccc1)NC(=O)[C@H](CO)NC(=O)CNC(=O)[C@H](CCC(N)=O)NC(=O)C(C)(C)NC(=O)[C@@H](N)Cc1c[nH]cn1)[C@@H](C)O)C(C)C)[C@@H](C)CC)C(=O)N[C@@H](C)C(=O)N[C@@H](C)C(=O)N[C@@H](CCC(N)=O)C(=O)N[C@@H](CC(=O)O)C(=O)N[C@@](C)(Cc1ccccc1)C(=O)N[C@H](C(=O)N[C@@H](CCC(N)=O)C(=O)NC(C)(C)C(=O)N[C@H](C(=O)N[C@H](C(=O)N[C@@H](CC(N)=O)C(=O)N[C@H](C(N)=O)[C@@H](C)O)[C@@H](C)CC)[C@@H](C)CC)C(C)C)C(=O)O)C(=O)O [Peptide 124] (H-H[Aib]QGS[αMeF]TSDVSKILDSK([PEG2-PEG2-γGlu-γGlu-Stearoyl])AAQD[αMeF]VQ[Aib]IINT-NH2; N-terminus assumed)
